In assay [1] the target is T1, cIAP1-BIR3 (Homo sapiens, UniProt Q13490).
T1 construct: with either 100 nM XIAP-BIR3 or 6 nM cIAP1-BIR3
In words: Biacore SPR solution inhibition (competition with smac7mer peptide) binding assay, cIAP1-BIR3. The note with it: 6 nM cIAP1-BIR3, competition with immobilised smac7mer peptide, 25° C.; read-out: CIAP-BIR3 Binding Biacore (Competitive) EC50. An excerpt:
(§1) The present method includes utility of a Surface plasmon resonance (SPR)-based biosensor (Biacore™ GE Healthcare, Uppsala, Sweden) to examine competition between the compounds of the present invention and smac7mer peptide for XIAP-BIR3 and cIAP1-BIR3 binding groove occupancy.
(§2) Biacore™ utilizes the phenomenon of surface plasmon resonance (SPR) to detect and measure binding interactions. In a typical Biacore experiment, one of the interacting molecules is immobilized on a flexible dextran matrix while the interacting partner is flowed over the derivatized surface. A binding interaction results in an increase in mass on the sensor surface and a corresponding direct change in the refractive index of the medium in the vicinity of the sensor surface. Changes in refractive index or signal are recorded in resonance units (R.U.) Signal changes due to association and dissociation of complexes are monitored in a non-invasive manner, continuously and in real-time, the results of which are reported in the form of a sensorgram.
(§3) Solution Inhibition Assay Format:
(§4) Biacore™ T100 (GE Healthcare, Uppsala, Sweden) was used to conduct all experiments reported herein. Sensor surface preparation and interaction analyses were performed at 25° C. Buffer and Biacore reagents were purchased from GE Healthcare. Running buffer containing 10 mM Hepes, pH7.4, 150 mM sodium chloride, 1.25 mM Dithiothreitol, 2% Dimethyl sulfoxide and 0.05% polysorbate 20 was utilized throughout all experiments.
(§5) Biotinylated smac7mer peptide was diluted to 10 nM in running buffer and captured onto a sensor surface pre-derivatized with streptavidin (sensor chip SA) towards peptide surface densities in the range 40-100 R.U. Peptide captured surfaces were blocked with 500 μM PEO2-Biotin (Thermo Scientific).
(§6) Interaction analyses were performed by first equilibrating each compound within a six point seven fold compound dilution series in the range 1 μM to 0.06 nM with either 100 nM XIAP-BIR3 or 6 nM cIAP1-BIR3 for at least one hour during instrument start-up procedures. Protein compound mixtures were then injected over reference and smac7mer peptide surfaces in series for 60 seconds at a flow-rate of 60 μL/min. Surface regeneration was performed at the end of each analysis cycle by a 30 second injection of 10 mM Glycine, pH 2.5, 1M Sodium Chloride, 0.05% polysorbate 20. Additionally, control compound samples and control XIAP-BIR3 or cIAP1-BIR3 samples were prepared and run at regular intervals to monitor surface and assay performance.
(§7) Data analyses were carried out using Biacore™ T100 evaluation software v2.0 to validate assay quality. Binding level report points were plotted versus logarithmic compound concentration values and analyzed in Graphpad prism 5 via non-linear regression using a one-site competition model. EC50 values were generated and used as a measure of inhibitor potency.
A general note: In SPR one partner is held on a chip, and binding of the other changes the refractive index at the surface.

Assay [2] has as its system Panc3.27 tumor cells. Nature of the assay: Cellular assay: Panc3.27 tumor cell proliferation (Cell Titer Glo). Format: cell-based. The note with it: Panc3.27 cells, 72 hour treatment, read-out: PANC proliferation IC50. As to the method: Cellular Assay—Treatment of Panc3.27 Tumor Cells with Dimeric IAP Antagonists
On day one adherent Panc3.27 cells are plated into two 96-well, clear, flat bottom plates. All wells in row A contain 90 uL of media. All wells in rows B-G contain a total volume of 90 uL per well and 4000 cells per well for Panc3.27 cell lines. Plates are then incubated overnight for 18 hours at 37° C., 5% CO2.
On day two cells are treated with the compounds of formula M-L-M′. Treatments are done in triplicate. The compounds are first serially diluted in DMSO and then added to media giving a final concentration of 0.2% DMSO when added to cells. Cells are treated with 10 uL of serially diluted compounds of formula M-L-M′ at a final concentration of 1000 nM, 200 nM, 40 nM, 8 nM, 1.6 nM, 0.32 nM, 0.06 nM, 0.013 nM, 0.0026 nM, and one untreated well. Plate two is used as a time zero plate.
To measure cell viability 50 uL of Cell Titer Glo (CTG) solution is added to row A, media only and B, cells and media. CTG is purchased from Promega Corporation catalog number G7573. The solution is prepared according to manufacturer's instructions. CTG measures the amount of ATP released from viable cells that is proportional to the number of cells in each well. After incubating for ten minutes with CTG plates are measured on a luminescent reader at 700 nm wavelength. Read time is approximately one second per well for a 96-well plate.
On day five 50 uL of CTG is added to plate one, rows A-G, incubated for 10 minutes at room temperature and read on a luminescent reader. Raw data is adjusted to account for the time zero plate as well as background noise. Triplicate values are averaged and percent control growth is calculated. Percent control growth is calculated using the following logical test: If well read data point (a) is greater than time zero data point (t=0), then 100*[(a)−(t=0)]/[(72 hour total growth)−(t=0)], OR 100*[(a)−(t=0)]/[(t=0)]. Data is represented by line graph with the concentration of compound on the x axis and percent control growth on the y axis.
(Cellular ATP, detected with luciferase, serves as a proxy for viable cell number.)

The target of assay [3] is T2, XIAP-BIR3 (Homo sapiens, UniProt P98170).
T2 construct: with either 100 nM XIAP-BIR3 or 6 nM cIAP1-BIR3
T2 sequence (P98170 241-356 limits assumed): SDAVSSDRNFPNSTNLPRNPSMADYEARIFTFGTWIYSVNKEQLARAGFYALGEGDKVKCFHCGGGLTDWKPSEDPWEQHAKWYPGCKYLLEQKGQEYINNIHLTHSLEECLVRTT
Nature of the assay: Biacore SPR solution inhibition (competition with smac7mer peptide) binding assay, XIAP-BIR3. Conditions: 100 nM XIAP-BIR3, competition with immobilised smac7mer peptide, 25° C.; read-out: XIAP-BIR3 Binding Biacore (Competitive) EC50.
Text: as §1, §2, §3, §4, §5, §6, §7

In assay [4] the test system is xenograft tumors. Nature of the assay: In vivo combination study in xenograft tumor mice. The note with it: 1× per week, mice with xenograft tumors, 2-3 weeks. As to the method:
In vivo combination studies were performed as follows. Cohorts of mice (n=8) were treated with (1) Cohort A: Example 1A (1.8 mg/kg, 1× per week), (2) Cohort B: Paclitaxel (12 mg/kg, 1× per week), or (3) Cohort C: a combination of Example 1A (1.8 mg/kg, 1× per week)+Paclitaxel (12 mg/kg, 1× per week). Studies typically initiated dosing when xenograft tumors were 200 mm^3 and lasted 2-3 weeks. Positive combination activity occurs when neither single agent treatment alone results in tumor regression (i.e. increase in tumor volume is not inhibited in treated animals) but the combination results in tumor regression (i.e. tumor volume decreases in treated animals).

T1 sequence (Q13490 260-352 limits assumed): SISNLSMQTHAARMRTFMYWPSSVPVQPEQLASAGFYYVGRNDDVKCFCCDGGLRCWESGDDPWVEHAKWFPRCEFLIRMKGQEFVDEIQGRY

The term EC50 denotes the concentration that produces a half-maximal response. For `CN[C@@H](C)C(=O)N[C@H](C(=O)N1CCC[C@H]1c1cncc(-n2cc(C(=O)NCCCCNC(=O)c3cn(-c4cncc([C@@H]5CCCN5C(=O)[C@@H](NC(=O)[C@H](C)NC)C(C)C)c4)c4ccccc34)c3ccccc32)c1)C(C)C` [Example 2J, (S,S,S)—N,N′-(butane-1,4-diyl)bis(1-(5-((S)-1-((S)-3-methyl-2-((S)-2-(methylamino)propanamido)butanol)pyrrolidin-2-yl)pyridin-3-yl)-1H-indole-3-carboxamide)], the results for the EC50 in assay [1] and in assay [3] were 1.13 to 1.15 nM and 19.3 to 19.5 nM, respectively. Besides, the IC50 in assay [2] lay within 0.18 to 1.21 nM.

For the compound `CN[C@@H](C)C(=O)N[C@H](C(=O)N1CCC[C@H]1c1cncc(-n2cc(C(=O)NCCNC(=O)c3cn(-c4cncc([C@@H]5CCCN5C(=O)[C@@H](NC(=O)[C@H](C)NC)C(C)C)c4)c4ccccc34)c3ccccc32)c1)C(C)C` [Example 2F, (S,S,S)—N,N′-(ethane-1,2-diyl)bis(1-(5-((S)-1-((S)-3-methyl-2-((S)-2-(methylamino)propanamido)butanoyl)pyrrolidin-2-yl)pyridin-3-yl)-1H-indole-3-carboxamide)], the results for the EC50 in assay [1] and in assay [3] were 0.21 to 0.86 nM and 23.5 to 55.2 nM, respectively. Besides, the IC50 in assay [2] lay within 0.08 to 0.28 nM.

Take `CN[C@@H](C)C(=O)N[C@H](C(=O)N1CCC[C@H]1c1cncc(-n2ccc3c(C(=O)NCc4ccc(CNC(=O)c5cccc6c5ccn6-c5cncc([C@@H]6CCCN6C(=O)[C@@H](NC(=O)[C@H](C)NC)C(C)C)c5)cc4)cccc32)c1)C(C)C` [Example 1B, (S,S,S)—N,N′-(1,4-phenylenebis(methylene))bis(1-(5-((S)-1-((S)-3-methyl-2-((S)-2-(methylamino)propanamido)butanoyl)pyrrolidin-2-yl)pyridin-3-yl)-1H-indole-4-carboxamide)]: the figures for the half-maximal effective concentration (EC50) in assay [1] and in assay [3] were 1.22 to 1.23 nM and 56.8 to 57 nM, respectively. The IC50 in assay [2] was under 0.0026 nM.

Turning to `CN[C@@H](C)C(=O)N[C@H](C(=O)N1CCC[C@H]1c1cncc(-n2ccc3c(C(=O)NCCCOCCOCCCNC(=O)c4cccc5c4ccn5-c4cncc([C@@H]5CCCN5C(=O)[C@@H](NC(=O)[C@H](C)NC)C(C)C)c4)cccc32)c1)C(C)C` [Example 1A, (S,S,S)—N,N′-(3,3′-(Ethane-1,2-diylbis(oxy))bis(propane-3,1-diyl))bis(1-(5-((S)-1-((S)-3-methyl-2-((S)-2-(methylamino)-propanamido)butanoyl)pyrrolidin-2-yl)pyridin-3-yl)-1H-indole-4-carboxamide)], the EC50 in assay [1] is 0.24 to 0.57 nM; in assay [3] it was 34.5 to 56.9 nM. For the same compound, the IC50 in assay [2] was 0.0026 to 0.83 nM. The “tumor response, single agent” value in assay [4] (Cohort A: 1.8 mg/kg) is reported as “tumor stasis was achieved”.

Take “(S,S,S)—N,N′-(propane-1,3-diyl)bis(1-(5-((S)-1-((S)-3-methyl-2-((S)-2-(methylamino)propanamido)butanoyl)pyrrolidin-2-yl)pyridin-3-yl)-1H-indole-3-carboxamide) [Example 2A]”: the half-maximal effective concentration (EC50) fell in the range of 0.6 to 1.1 nM in assay [1] and 49.8 to 52.2 nM in assay [3]. The IC50 in assay [2] was in the range of 0.14 to 2.86 nM.

Regarding `CN[C@@H](C)C(=O)N[C@H](C(=O)N1CCC[C@H]1c1cncc(-n2ccc3c(C(=O)NCCCNC(=O)c4cccc5c4ccn5-c4cncc([C@@H]5CCCN5C(=O)[C@@H](NC(=O)[C@H](C)NC)C(C)C)c4)cccc32)c1)C(C)C` [Example 1C, (S,S,S)—N,N′-(propane-1,3-diyl)bis(1-(5-((S)-1-((S)-3-methyl-2-((S)-2-(methylamino)propanamido)butanol)pyrrolidin-2-yl)pyridin-3-yl)-1H-indole-4-carboxamide)], the EC50 is 1.66 to 1.71 nM in assay [1] and 70.7 to 71.3 nM in assay [3]. For the same compound, the IC50 in assay [2] lay in the range of 0.0026 to 0.14 nM.

For `CC(=O)O[C@H]1C(=O)[C@@]2(C)[C@H]([C@H](OC(=O)c3ccccc3)[C@]3(O)C[C@H](OC(=O)[C@H](O)[C@@H](NC(=O)c4ccccc4)c4ccccc4)C(C)=C1C3(C)C)[C@]1(OC(C)=O)CO[C@@H]1C[C@@H]2O` [Paclitaxel, reference compound], the tumor growth control in assay [4] (Cohort B: 12 mg/kg) is over 50%.

Take `CN[C@@H](C)C(=O)N[C@H](C(=O)N1CCC[C@H]1c1cncc(-n2cc(C(=O)NCCCCCCNC(=O)c3cn(-c4cncc([C@@H]5CCCN5C(=O)[C@@H](NC(=O)[C@H](C)NC)C(C)C)c4)c4ccccc34)c3ccccc32)c1)C(C)C` [Example 2L, (S,S,S)—N,N′-(hexane-1,6-diyl)bis(1-(5-((S)-1-((S)-3-methyl-2-((S)-2-(methylamino)propanamido)butanol)pyrrolidin-2-yl)pyridin-3-yl)-1H-indole-3-carboxamide)]: the EC50 in assay [1] was 1.71 to 1.73 nM; in assay [3] it was 25.5 to 25.8 nM. Moreover, the IC50 in assay [2] is under 0.0026 nM.

As to `CN[C@@H](C)C(=O)N[C@H](C(=O)N1CCC[C@H]1c1cncc(-n2cc(C(=O)NCCCCCCCCCCCNC(=O)c3cn(-c4cncc([C@@H]5CCCN5C(=O)[C@@H](NC(=O)[C@H](C)NC)C(C)C)c4)c4ccccc34)c3ccccc32)c1)C(C)C` [Example 2H, (S,S,S)—N,N′-(undecane-1,11-diyl)bis(1-(5-((S)-1-((S)-3-methyl-2-((S)-2-(methylamino)propanamido)butanoyl)pyrrolidin-2-yl)pyridin-3-yl)-1H-indole-3-carboxamide)], the results for the EC50 in assay [1] and in assay [3] were 1 to 1.02 nM and 60.3 to 60.8 nM, respectively. In addition, the IC50 in assay [2] was under 0.0026 nM.

`CN[C@@H](C)C(=O)N[C@H](C(=O)N1CCC[C@H]1c1cncc(-n2cc(C(=O)NCCCOCCOCCCNC(=O)c3cn(-c4cncc([C@@H]5CCCN5C(=O)[C@@H](NC(=O)[C@H](C)NC)C(C)C)c4)c4ccccc34)c3ccccc32)c1)C(C)C` [Example 2E, (S,S,S)—N,N′-(3,3′-(ethane-1,2-diylbis(oxy))bis(propane-3,1-diyl))bis(1-(5-((S)-1-((S)-3-methyl-2-((S)-2-(methylamino)propanamido)butanoyl)pyrrolidin-2-yl)pyridin-3-yl)-1H-indole-3-carboxamide)]: the EC50 in assay [1] lay in the range of 0.52 to 1.83 nM; in assay [3], 47 to 54 nM. Also, in assay [2], the IC50 was 0.26 to 0.44 nM.

The values above are taken from patent US8993523B2, “Dimeric IAP inhibitors” (Novartis AG, priority 2010, dated 2015).
